Results as given in PubChem BioAssay (NCI).
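Abbreviation: GI50, concentration required for 50% inhibition of growth. TGI marks complete inhibition of growth.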

Columns and labels:
Assay in all cases: NCI tumour cell line growth inhibition, 384-well format
[1] = tested on: A498 renal
[2] = tested on: A549 NSCLC
[3] = tested on: ACHN renal
[4] = tested on: BT-549 breast
[5] = tested on: CAKI-1 renal
[6] = tested on: COLO 205 colon
[7] = tested on: DU-145 prostate
[8] = tested on: HCC-2998 colon
[9] = tested on: HCT-116 colon
[10] = tested on: HCT-15 colon
[11] = tested on: HL-60(TB) leukemia
[12] = tested on: HOP-62 NSCLC
[13] = tested on: HOP-92 NSCLC
[14] = tested on: HS 578T breast
[15] = tested on: HT29 colon
[16] = tested on: IGROV1 ovarian
[17] = tested on: KM12 colon
[18] = tested on: LOX IMVI melanoma
[19] = tested on: M14 melanoma
[20] = tested on: MDA-MB-231 breast
[21] = tested on: MDA-MB-435 melanoma
[22] = tested on: MDA-MB-468 breast
[23] = tested on: MOLT-4 leukemia
[24] = tested on: NCI-H226 lung
[25] = tested on: NCI-H23 lung
[26] = tested on: NCI-H322M lung
[27] = tested on: NCI-H460 NSCLC
[28] = tested on: NCI-H522 lung
[29] = tested on: NCI/ADR-RES ovarian
[30] = tested on: OVCAR-3 ovarian
[31] = tested on: OVCAR-4 ovarian
[32] = tested on: OVCAR-8 ovarian
[33] = tested on: PC-3 prostate
[34] = tested on: RXF 393 renal
[35] = tested on: SF-268 CNS
[36] = tested on: SF-295 CNS
[37] = tested on: SK-MEL-5 melanoma
[38] = tested on: SK-OV-3 ovarian
[39] = tested on: SN12C renal
[40] = tested on: SNB-19 CNS
[41] = tested on: SNB-75 CNS
[42] = tested on: SR leukemia
[43] = tested on: T-47D breast
[44] = tested on: TK-10 renal
[45] = tested on: U251 glioblastoma
[46] = tested on: UACC-257 melanoma
[47] = tested on: UO-31 renal

CC(O)[C@H](NC(=O)N[C@@H](CC(N)=O)c1nc(N2CCNCC2)no1)C(=O)O (some centres undefined)
GI50 [1]: > 100 µM
TGI [1]: > 100 µM
GI50 [2]: > 100 µM
TGI [2]: > 100 µM
GI50 [3]: > 100 µM
TGI [3]: > 100 µM
GI50 [4]: > 100 µM
TGI [4]: > 100 µM
GI50 [5]: > 100 µM
TGI [5]: > 100 µM
GI50 [6]: > 100 µM
TGI [6]: > 100 µM
GI50 [7]: > 100 µM
TGI [7]: > 100 µM
GI50 [8]: > 100 µM
TGI [8]: > 100 µM
GI50 [9]: > 100 µM
TGI [9]: > 100 µM
GI50 [10]: > 100 µM
TGI [10]: > 100 µM
GI50 [11]: > 100 µM
TGI [11]: > 100 µM
GI50 [12]: > 100 µM
TGI [12]: > 100 µM
GI50 [13]: > 100 µM
TGI [13]: > 100 µM
GI50 [14]: > 100 µM
TGI [14]: > 100 µM
GI50 [15]: > 100 µM
TGI [15]: > 100 µM
GI50 [16]: > 100 µM
TGI [16]: > 100 µM
GI50 [17]: > 100 µM
TGI [17]: > 100 µM
GI50 [18]: > 100 µM
TGI [18]: > 100 µM
GI50 [19]: > 100 µM
TGI [19]: > 100 µM
GI50 [20]: > 100 µM
TGI [20]: > 100 µM
GI50 [21]: > 100 µM
TGI [21]: > 100 µM
GI50 [22]: > 100 µM
TGI [22]: > 100 µM
GI50 [23]: > 100 µM
TGI [23]: > 100 µM
GI50 [24]: > 100 µM
TGI [24]: > 100 µM
GI50 [25]: > 100 µM
TGI [25]: > 100 µM
GI50 [26]: > 100 µM
TGI [26]: > 100 µM
GI50 [27]: > 100 µM
TGI [27]: > 100 µM
GI50 [28]: > 100 µM
TGI [28]: > 100 µM
GI50 [29]: > 100 µM
TGI [29]: > 100 µM
GI50 [30]: > 100 µM
TGI [30]: > 100 µM
GI50 [31]: > 100 µM
TGI [31]: > 100 µM
GI50 [32]: > 100 µM
TGI [32]: > 100 µM
GI50 [33]: > 100 µM
TGI [33]: > 100 µM
GI50 [34]: > 100 µM
TGI [34]: > 100 µM
GI50 [35]: > 100 µM
TGI [35]: > 100 µM
GI50 [36]: > 100 µM
TGI [36]: > 100 µM
GI50 [37]: > 100 µM
TGI [37]: > 100 µM
GI50 [38]: > 100 µM
TGI [38]: > 100 µM
GI50 [39]: > 100 µM
TGI [39]: > 100 µM
GI50 [40]: > 100 µM
TGI [40]: > 100 µM
GI50 [41]: > 100 µM
TGI [41]: > 100 µM
GI50 [42]: > 100 µM
TGI [42]: > 100 µM
GI50 [43]: > 100 µM
TGI [43]: > 100 µM
GI50 [44]: > 100 µM
TGI [44]: > 100 µM
GI50 [45]: > 100 µM
TGI [45]: > 100 µM
GI50 [46]: > 100 µM
TGI [46]: > 100 µM
GI50 [47]: > 100 µM
TGI [47]: > 100 µM
